From article PMC6792352, “Limited Chemical Structural Diversity Found to Modulate Thyroid Hormone Receptor in the Tox21 Chemical Library” (Environmental Health Perspectives, 2019)
Structures can show the parent of a compound that is named as a salt.

Assay: in vitro
Details: rat, gh3-tre-luc cells, AC50 (uM) modified / 1000

SMILES | CC50 at 24 h
N[C@@H]1C[C@H]1c1ccccc1 [Tranylcypromine hydrochloride] | > 50 µM
OCc1ccccn1 [Piconol] | > 50 µM
Nc1ccc(Cl)c(N)c1 [4-Chloro-1,3-diaminobenzene] | > 90 µM
COc1cccc(O)c1O [3-Methoxycatechol] | 70.4 µM
CC[C@@H](NC(C)C)[C@@H](O)c1ccc(O)c2[nH]c(=O)ccc12 [Procaterol] | > 50 µM
Cc1onc(-c2c(Cl)cccc2Cl)c1C(=O)N[C@@H]1C(=O)N2[C@@H]1SC(C)(C)[C@@H]2C(=O)O [Dicloxacillin sodium salt monohydrate] | > 50 µM
Nc1nc(N)c(N)c(N)n1 [2,4,5,6-Pyrimidinetetramine sulfate (1:1)] | > 90 µM
O=C1CCN(c2ccccc2)N1 [3-Pyrazolidinone,1-phenyl-] | > 90 µM
CC1(O)CSC(C)(O)CS1 (stereo not shown) [2,5-Dimethyl-1,4-dithiane-2,5-diol] | > 90 µM
CC(C)C(C(=O)OC(C#N)c1cccc(Oc2ccccc2)c1)c1ccc(Cl)cc1 (stereo not shown) [Fenvalerate] | > 90 µM
O=C1CCCCCCCCCCCN1 [Azacyclotridecan-2-one] | > 90 µM
Nc1ccc(Cc2ccc(N)c(Cl)c2)cc1Cl [4,4'-Methylenebis(2-chloroaniline)] | 67.7 µM
CCN(CC)CCOc1ccc(C(O)(Cc2ccc(Cl)cc2)c2ccc(C)cc2)cc1 (stereo not shown) [Triparanol] | 8.76 µM
CN(C)CCCNCCC#N [3-{[3-(Dimethylamino)propyl]amino}propanenitrile] | > 90 µM
CN(C)C(=O)Nc1ccc(Cl)cc1 [Monuron] | > 90 µM
O=C(NS(=O)(=O)/C=C/c1cccs1)c1ccc(F)cc1Br [PharmaGSID_48518] | > 90 µM
O=NN(CCCl)C(=O)NCCCl [Carmustine] | > 50 µM
CC(C)(c1ccccc1)c1ccccc1 [2,2-Diphenylpropane] | > 90 µM
CCC(=O)C(=O)CC [3,4-Hexanedione] | > 100 µM
CNC1(c2ccccc2Cl)CCCCC1=O (stereo not shown) [Ketamine] | > 50 µM
CCOC1Oc2ccc(OS(C)(=O)=O)cc2C1(C)C (stereo not shown) [Ethofumesate] | > 90 µM
CC(=O)OC(C)(C)C1CC=C(C)CC1 (stereo not drawn) [alpha-Terpinyl acetate] | > 90 µM
COc1cc(/C=C/c2ccccc2)oc(=O)c1 [Desmethoxyyangonin] | > 90 µM

SMILES | CC50 at 24 h
C=CC(=O)OCC1CCCO1 (stereo not shown) [Tetrahydrofurfuryl acrylate] | > 90 µM
CCC(C)C1CCCCC1=O (stereo not shown) [2-sec-Butylcyclohexanone] | > 90 µM
CC[C@@H](CO)NC(=O)[C@@H]1C=C2c3cccc4c3c(cn4C)C[C@H]2N(C)C1 [Methysergide] | > 50 µM
O=C(O)c1cccnc1C(=O)O [Quinolinic acid] | > 90 µM
Cc1ccc(C(C)(C)O)cc1 [p-Cymen-8-ol] | > 90 µM
CC(C)(C)CC(C)(C)c1ccccc1O [(1,1,3,3-Tetramethylbutyl)phenol (all isomers)] | 31.1 µM
CNC(C)CCC=C(C)C (stereo not shown) [Isometheptene hydrochloride] | > 50 µM
CNCC(=O)N[C@@H](CCCN=C(N)N)C(=O)N[C@H](C(=O)N[C@@H](Cc1ccc(O)cc1)C(=O)N[C@H](C(=O)N[C@@H](Cc1cnc[nH]1)C(=O)N1CCC[C@H]1C(=O)N[C@@H](C)C(=O)O)C(C)C)C(C)C [Saralasin] | > 50 µM
CCN(CC)C(=O)N[C@H]1C[C@@H]2c3cccc4[nH]cc(c34)C[C@H]2N(C)C1 [Terguride] | > 50 µM
CC1=C(CC(=O)O)c2cc(F)ccc2/C1=C\c1ccc([S+](C)[O-])cc1 (stereo not shown) [Sulindac] | > 90 µM
O=C1Nc2ccc(Cl)cc2[C@@](C#CC2CC2)(C(F)(F)F)O1 [Efavirenz] | 31.4 µM
CCCCCCCCCC [Decane] | > 90 µM
CCCCCCCCOCCCN [3-(Octyloxy)propan-1-amine] | 11.8 µM
Cc1cccc(Nc2ccncc2S(=O)(=O)NC(=O)NC(C)C)c1 [Torsemide] | > 20 µM
CCc1cn([C@H]2C[C@H](O)[C@@H](CO)O2)c(=O)[nH]c1=O [Edoxudine] | > 50 µM
C[C@]12CC[C@@H]3c4ccc(OC(=O)c5ccccc5)cc4CC[C@H]3[C@@H]1CC[C@@H]2O [Estradiol benzoate] | > 50 µM
CC1(C)S[C@@H]2[C@H](NC(=O)[C@H](NC(=O)N3CCN(S(C)(=O)=O)C3=O)c3ccccc3)C(=O)N2[C@H]1C(=O)O [Mezlocillin] | > 50 µM
CCCCCCCCCCCCSC#N [Lauryl thiocyanate] | > 90 µM
c1ccc2c(c1)[nH]c1cnccc12 [Norharman] | > 90 µM
CCCCCCCCCCCCCCC(=O)O [Pentadecanoic acid] | > 90 µM
CCN(CC)CCNc1ccc(CNC=O)c2sc3ccc(OC)cc3c(=O)c12 [SR271425] | 11.7 µM
CC1(C)S[C@@H]2[C@H](N=CN3CCCCCC3)C(=O)N2[C@H]1C(=O)O [Amdinocillin] | > 50 µM
CC(N)C(=O)OC(C)(C)Cc1ccc(Cl)cc1 (stereo not shown) [Alaproclate] | 25.5 µM

SMILES | CC50 at 24 h
CCCCCCCCCCCCCCCBr [1-Bromopentadecane] | > 50 µM
C[C@@H]1CN(c2c(F)c(N)c3c(=O)c(C(=O)O)cn(C4CC4)c3c2F)C[C@H](C)N1 [Sparfloxacin] | > 50 µM
CCCCCCCC/C=C\CCCCCCCC(=O)OCCOC(=O)CCCCCCC/C=C\CCCCCCCC [Polyethylene glycol dioleate] | > 100 µM
C[C@]12CCC(=O)C=C1CC[C@@H]1[C@@H]2[C@@H](O)C[C@@]2(C)[C@H]1CC[C@]2(O)C(=O)COC(=O)CCC(=O)O [Hydrocortisone 21-hemisuccinate sodium salt] | > 50 µM
c1ccc(CCc2ccccc2)cc1 [Bibenzyl] | > 90 µM
OCC(CO)(CBr)CBr [Pentaerythritol dibromide] | > 90 µM
C/C=C1\C(=O)C[C@H]2[C@@H]3CCC4=CC(=O)CC[C@]4(C)[C@H]3CC[C@]12C [Guggulsterone Z] | > 50 µM
CS/C(C)=N\OC(=O)N(C)SN(C)C(=O)O/N=C(\C)SC [Thiodicarb] | 39.7 µM
NCCCC[C@H](NC(=O)[C@@H]1CCCN1C(=O)[C@@H]1CSSC[C@H](N)C(=O)N[C@@H](Cc2ccc(O)cc2)C(=O)N[C@@H](Cc2ccccc2)C(=O)N[C@@H](CCC(N)=O)C(=O)N[C@@H](CC(N)=O)C(=O)N1)C(=O)NCC(N)=O [Lypressin] | > 50 µM
Cc1ncc(CNC(=O)N(CCCl)N=O)c(N)n1 [Nimustine] | > 50 µM
CO[Si](CCCn1c(=O)n(CCC[Si](OC)(OC)OC)c(=O)n(CCC[Si](OC)(OC)OC)c1=O)(OC)OC [1,3,5-Tris[3-(trimethoxysilyl)propyl]-1,3,5-triazinane-2,4,6-trione] | > 70 µM
CC[C@]12CCCN3CCc4c(n(c5ccccc45)[C@@](O)(C(=O)OC)C1)[C@@H]32 [Vincamine] | 65.8 µM
CCCN[C@H]1CCc2nc(N)sc2C1 [Pramipexole dihydrochloride monohydrate] | > 100 µM
COC(=O)c1cccc(C(=O)OC)c1 [Dimethyl isophthalate] | > 90 µM
CCCCCCOC(=O)c1cccnc1 [Hexyl nicotinate] | > 50 µM
CCCCc1oc2ccc(NS(C)(=O)=O)cc2c1C(=O)c1ccc(OCCCN(CCCC)CCCC)cc1 [Dronedarone] | 9.94 µM
CCOC(=O)COC(=O)c1ccccc1C(=O)OCC [Ethyl phthalyl ethyl glycolate] | > 90 µM
Clc1cccc(Cl)c1N=C1NCCN1 [Clonidine hydrochloride] | > 90 µM
CCCCCCCCCCCC[N+](C)(C)CCCCCCCCCCCC [Didodecyldimethylammonium bromide] | 12.2 µM
O=Nc1ccc(NO)cc1 [p-Benzoquinone dioxime] | > 100 µM
Cc1nc(-c2ccc(Cl)cc2)oc1COC(C)(C)C(=O)O [Romazarit] | > 50 µM

Same assay, conditions: rat, gh3-tre-luc cells, AC50 (uM) modified / 1000, Tox21_110001=Tox21_111095; viability, 1 nM T3 present, 24 h

SMILES | CC50 at 24 h
Nc1ccccc1C(=O)O [Anthranilic acid] | > 50 µM

Same assay, conditions: rat, gh3-tre-luc cells, AC50 (uM) modified / 1000, Tox21_110001=Tox21_111567; viability, 1 nM T3 present, 24 h

SMILES | CC50 at 24 h
CNC1=Nc2ccc(Cl)cc2C(c2ccccc2)=[N+]([O-])C1 [Chlordiazepoxide] | > 50 µM

Same assay, conditions: rat, gh3-tre-luc cells, AC50 (uM) modified / 1000, Tox21_110001=Tox21_111946; viability, 1 nM T3 present, 24 h

SMILES | CC50 at 24 h
COP(=S)(OC)Oc1ccc(S(=O)(=O)N(C)C)cc1 [Famphur] | > 50 µM

Same assay, conditions: rat, gh3-tre-luc cells, AC50 (uM) modified / 1000, Tox21_110001=Tox21_112870; viability, 1 nM T3 present, 24 h

SMILES | CC50 at 24 h
Cc1nc2ccccc2c(=O)n1-c1ccccc1Cl [Mecloqualone] | 42.7 µM

Same assay, conditions: rat, gh3-tre-luc cells, AC50 (uM) modified / 1000, Tox21_110001=Tox21_200703; viability, 1 nM T3 present, 24 h

SMILES | CC50 at 24 h
Nc1ccccc1C(=O)O [Anthranilic acid] | > 90 µM

Same assay, conditions: rat, gh3-tre-luc cells, AC50 (uM) modified / 1000, Tox21_110001=Tox21_200853; viability, 1 nM T3 present, 24 h

SMILES | CC50 at 24 h
Cc1cccc(C#N)c1 [3-Methylbenzonitrile] | > 90 µM

Same assay, conditions: rat, gh3-tre-luc cells, AC50 (uM) modified / 1000, Tox21_110001=Tox21_201334; viability, 1 nM T3 present, 24 h

SMILES | CC50 at 24 h
CN(C)C(=O)Cl [Dimethylcarbamoyl chloride] | > 90 µM

Same assay, conditions: rat, gh3-tre-luc cells, AC50 (uM) modified / 1000, Tox21_110001=Tox21_201828; viability, 1 nM T3 present, 24 h

SMILES | CC50 at 24 h
Sc1nc2ccccc2[nH]1 [2-Mercaptobenzimidazole] | > 90 µM

Same assay, conditions: rat, gh3-tre-luc cells, AC50 (uM) modified / 1000, Tox21_110001=Tox21_202250; viability, 1 nM T3 present, 24 h

SMILES | CC50 at 24 h
COP(N)(=O)SC (stereo not shown) [Methamidophos] | > 90 µM

Same assay, conditions: rat, gh3-tre-luc cells, AC50 (uM) modified / 1000, Tox21_110001=Tox21_202349; viability, 1 nM T3 present, 24 h

SMILES | CC50 at 24 h
CCCCCc1cc(O)cc(O)c1 [Olivetol] | 78.4 µM

Same assay, conditions: rat, gh3-tre-luc cells, AC50 (uM) modified / 1000, Tox21_110001=Tox21_301907; viability, 1 nM T3 present, 24 h

SMILES | CC50 at 24 h
COP(=S)(OC)Oc1ccc(S(=O)(=O)N(C)C)cc1 [Famphur] | > 90 µM

Same assay, conditions: rat, gh3-tre-luc cells, AC50 (uM) modified / 1000, Tox21_110001=Tox21_303332; viability, 1 nM T3 present, 24 h

SMILES | CC50 at 24 h
CCCCCc1cc(O)cc(O)c1 [Olivetol] | 75.4 µM
